Assays:
[1] = test system: SH-SY5Y, HeLa; assay: MTT cell proliferation assay and trypan blue count (cell viability); assay type: cell-based; settings: cells treated for 48 and 72 hours; read-out: IC50 values (inhibition of cellular proliferation, MTT assay and trypan blue assay)
Protocol: Cell based assays were used to evaluate the possible cytotoxic effects of some compounds. To measure cytotoxic effects two different methods were used, a MTT cell proliferation assay and trypan blue count.
The Trypan blue assay is used to determine the number of viable cells present in a cell suspension. […] Briefly, 8×10^5 cells (SH-SY5Y, HeLa; obtained from ATCC, LGC standards, Sesto San Giovanni) were seeded in 24-well plates and treated for 48 and 72 hours. After the treatments, cells were stained with trypan blue and counted.
To analyze cell viability was used the colorimetric 3-(4,5-dimethylthiazol-2-yl)-2,5-diphenyltetrazolium bromide (MTT) method. The assay is based on the cleavage of the yellow tetrazolium salt MTT to purple formazan crystals by metabolic active cells. Since reduction of MTT can only occur in metabolically active cells, the level of activity is a measure of the viability of cells and conversely the cytotoxic effects of various treatments. Briefly, 8×10^5 cells (SH-SY5Y, code number CRL-2266; and HeLa, code number CCL-2) were seeded in 24-well plates and treated for 48 and 72 hours. Compounds were dissolved in DMSO and were added to the cells to give a final DMSO concentration no greater than 0.5%. Cells were washed once in Locke buffer and 300 μl of MTT (250 μg/ml in Locke buffer) were added before returning the cells to the incubator for 1 h to allow the formation of the purple formazan crystals. After 1 h, 600 μl of isopropanol/0.1 M HCl were added to each well, and the absorbance was read at 570 nm in a plate reader (Victor3V, PerkinElmer Life Sciences). For some compounds a dose response curve and IC50 for the effects on cell viability and proliferation were calculated. Cell lines used were originally purchased from ATCC (LGC standards. Sesto San Giovanni).
To evaluate the ability of each compound to inhibit cellular proliferation, cells were seeded in 24-well plates and treated for 48 and 72 hours. After the treatments the MTT assay and trypan blue assay were performed.

[2] = target: T1, NAMPT (Homo sapiens, UniProt P43490); assay: Direct inhibition of NAMPT enzymatic activity (Cyclex NAMPT colorimetric Assay Kit); assay type: biochemical; settings: as assessed with a cycling assay
T1 construct: endogenous in cells; host or cells: SH-SY5Y and HeLa
T1 sequence (P43490 whole entry): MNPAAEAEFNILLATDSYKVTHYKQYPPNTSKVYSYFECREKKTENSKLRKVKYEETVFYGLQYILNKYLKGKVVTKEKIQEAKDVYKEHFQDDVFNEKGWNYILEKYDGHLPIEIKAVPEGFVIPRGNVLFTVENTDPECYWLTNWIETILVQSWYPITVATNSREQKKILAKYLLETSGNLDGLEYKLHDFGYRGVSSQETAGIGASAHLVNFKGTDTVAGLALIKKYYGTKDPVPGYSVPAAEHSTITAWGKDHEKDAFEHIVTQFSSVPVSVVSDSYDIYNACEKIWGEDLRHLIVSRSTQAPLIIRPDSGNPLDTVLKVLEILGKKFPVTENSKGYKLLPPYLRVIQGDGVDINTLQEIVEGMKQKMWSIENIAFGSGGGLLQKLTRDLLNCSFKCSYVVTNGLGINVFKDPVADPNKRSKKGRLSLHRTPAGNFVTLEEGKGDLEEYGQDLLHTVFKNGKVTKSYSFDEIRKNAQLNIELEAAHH
Protocol: Determination of the direct activity of compounds on NAMPT was performed using a commercial kit, Cyclex NAMPT colorimetric Assay Kit.

[3] = test system: DNBS-induced colitis in BALB/c mice; assay: Experimental colitis induced by DNBS; assay type: in vivo; settings: i.p.
Protocol: Animal work was authorized by the local ethical committee for animal studies (Università del Piemonte Orientale). BALB/c mice (Harlan Nossan, Milan, Italy) were anesthetized by enflurane. Dinitrobenzene sulfonic acid (DNBS; 4 mg in 100 μl of 50% ethanol) was injected into the rectum through a catheter inserted 4.5 cm proximally to the anus. Carrier alone (100 μl of 50% ethanol) was administered in control experiments. Thereafter, the animals were kept for 15 minutes in a Trendelenburg position to avoid reflux. Treatment with either solvent alone or drugs was done immediately after induction and thereafter twice a day. […] On Day 4, the animals were weighed and anaesthetized with chloral hydrate, and the abdomen was opened by a midline incision. The colon was removed, freed from surrounding tissues, opened along the antimesenteric border, rinsed, weighed, and processed for histology, biochemical measurements and immunohistochemistry. Colon damage (macroscopic damage score) was evaluated and scored by two independent observers according to the following criteria: 0, no damage; 1, localized hyperemia without ulcers; 2, linear ulcers with no significant inflammation; 3, linear ulcers with inflammation at one site; 4, two or more major sites of inflammation and ulceration extending >1 cm along the length of the colon; and 5-8, one point is added for each centimeter of ulceration beyond an initial 2 cm. Biochemical and histological analysis also included TNFalpha measurements and myeloperoxidase (MPO) measurements by ELISA assay, and VEGF, NAMPT, COX-2 measurements by immunoblotting. (Esposito E, Mazzon E, Paterniti I, Dal Toso R, Pressi G, Caminiti R, Cuzzocrea S. PPAR-alpha Contributes to the Anti-Inflammatory Activity of Verbascoside in a Model of Inflammatory Bowel Disease in Mice. PPAR Res. 2010; 2010:917312).
(§1) As previously described, the colon of DNBS- or dextran treated animals was removed after the induction of colitis. Compounds of formula (I) were administered intraperitoneally (i.p.).

[4] = test system: Dextran-induced colitis in C57/BJ6 mice; assay: Experimental colitis induced by dextran sulfate sodium (DSS); assay type: in vivo; settings: i.p., doses of between 20 mg/Kg and 500 mg/Kg
Protocol: Animal work was authorized by the local ethical committee for animal studies (Università del Piemonte Orientale). Colitis was induced in C57/BJ6 mice (Harlan Nossan, Milan, Italy) by addition of DSS (2%) to their daily drinking water for 7 days followed by a 3-day recovery period without DSS. The severity of colitis was assessed using these set of criteria: (1) clinical index (daily changes in body weight; diarrhea and rectal bleeding); (2) macroscopic evidence of colitis (shortening of colon length). On day 10 of the experiment, animals were sacrificed. Treatments were performed with either solvent alone or drugs once a day for the entire duration of the experiments from day 1 to day 7. The colon lengths were measured and colon tissues were harvested for biochemical measurements, histopathological assessment and scoring. (Tang Y, Preuss F, Turek F W, Jakate S, Keshavarzian A. Sleep deprivation worsens inflammation and delays recovery in a mouse model of colitis. Sleep Med. 2009 June; 10(6):597-603).
as §1

[5] = DNBS-treated mice, between 20 mg/Kg and 500 mg/Kg, compared to untreated colitis mice

O=C(O)c1ccccc1-c1ccccc1C(=O)NCCCCCCCn1cc(-c2cccnc2)nn1 [2′-((7-(4-(pyridin-3-yl)-1H-1,2,3-triazol-1-yl)heptyl)carbamoyl)-[1,1′-biphenyl]-2-carboxylic acid]
IC50 [1]: < 0.3 µM | inhibition of the enzymatic activity of NAMPT [2]: able to inhibit | MPO in the colon [3, 5]: able to reduce | NAMPT in the colon [3, 5]: able to reduce | TNFalpha in the colon [3, 5]: able to reduce | VEGF in the colon [3, 5]: able to reduce | protection from DNBS-induced colitis as assessed by the macroscopic damage score ([3]; doses of between 20 mg/Kg and 500 mg/Kg): able to protect | protection from Dextran-induced colitis as assessed by the macroscopic damage score [4]: able to protect

Reference: US20160075682A1, “INHIBITORS OF NICOTINAMIDE PHOSPHORIBOSYLTRANSFERASE, COMPOSITIONS, PRODUCTS AND USES THEREOF” (UNIVERSITÀ DEGLI STUDI DEL PIEMONTE ORIENTALE "AMEDEO …, priority 2013, published 2016)
